Test results published in ChEMBL document CHEMBL5030507, “Structure-Based Design of a Selective Class I Histone Deacetylase (HDAC) Near-Infrared (NIR) Probe for Epigenetic Regulation Detection in Triple-Negative Breast Cancer (TNBC)” (J Med Chem, 2021).

Assays:
[1] = Drug distribution in NOD-SCID mouse lung xenografted with triple negative MDA-MB-231 cells at 3 nmol, iv measured 24 hrs post infection by NRI fluorescence imaging analysis; type: ADME, organism-based; conditions: in vivo
[2] = Drug uptake in tumor of athymic nude mouse xenografted with human MDA-MB-231 cells assessed as reduction in tumor to normal tissue ratio at 3 nmol, iv in presence of (12Z,7S,10S)-7- (4-Aminobutyl)-4-ethylidene-10-((E)-4-(heptyldisulfaneyl)but-1-en-1-yl)-9-oxa-3,6,13-triaza-1(4,2)-thiazolacyclotetradecaphane-2,5,8,12-tetraone measured up to 48 hrs by epifluorescence analysis relative to control; type: ADME, organism-based, Neoplasm; conditions: in vivo
Histone deacetylase 1 = Histone deacetylase 1 (Homo sapiens, UniProt Q13547); experiment: Inhibition of recombinant human C-terminal FLAG/His-tagged HDAC1 (1 to 482 residues) expressed in Sf9 insect cells using fluorometric substrate measured after 60 mins by FRET assay
Histone deacetylase 1, sequence (Q13547 whole entry, the tested form may be a part): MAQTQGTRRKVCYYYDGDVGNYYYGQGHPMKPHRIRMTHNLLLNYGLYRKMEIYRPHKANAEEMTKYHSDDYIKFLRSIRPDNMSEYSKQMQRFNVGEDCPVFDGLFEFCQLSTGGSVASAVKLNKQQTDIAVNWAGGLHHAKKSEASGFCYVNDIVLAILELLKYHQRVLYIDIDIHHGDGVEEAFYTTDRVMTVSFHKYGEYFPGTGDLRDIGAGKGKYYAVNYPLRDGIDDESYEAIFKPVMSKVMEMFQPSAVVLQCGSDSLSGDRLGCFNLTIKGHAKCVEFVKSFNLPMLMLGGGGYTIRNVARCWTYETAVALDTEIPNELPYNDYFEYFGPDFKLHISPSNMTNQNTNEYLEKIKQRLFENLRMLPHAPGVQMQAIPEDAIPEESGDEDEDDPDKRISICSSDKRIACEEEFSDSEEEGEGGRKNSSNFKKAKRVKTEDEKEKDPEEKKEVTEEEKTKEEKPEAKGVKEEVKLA

[3] = biological target: T1, Protein deacetylase HDAC6 (Homo sapiens, UniProt Q9UBN7); experiment: Inhibition of recombinant human full length N-terminal GST-tagged HDAC6 expressed in Sf9 cells using fluorogenic substrate measured after 60 mins by FRET assay
T1 sequence (Q9UBN7 whole entry): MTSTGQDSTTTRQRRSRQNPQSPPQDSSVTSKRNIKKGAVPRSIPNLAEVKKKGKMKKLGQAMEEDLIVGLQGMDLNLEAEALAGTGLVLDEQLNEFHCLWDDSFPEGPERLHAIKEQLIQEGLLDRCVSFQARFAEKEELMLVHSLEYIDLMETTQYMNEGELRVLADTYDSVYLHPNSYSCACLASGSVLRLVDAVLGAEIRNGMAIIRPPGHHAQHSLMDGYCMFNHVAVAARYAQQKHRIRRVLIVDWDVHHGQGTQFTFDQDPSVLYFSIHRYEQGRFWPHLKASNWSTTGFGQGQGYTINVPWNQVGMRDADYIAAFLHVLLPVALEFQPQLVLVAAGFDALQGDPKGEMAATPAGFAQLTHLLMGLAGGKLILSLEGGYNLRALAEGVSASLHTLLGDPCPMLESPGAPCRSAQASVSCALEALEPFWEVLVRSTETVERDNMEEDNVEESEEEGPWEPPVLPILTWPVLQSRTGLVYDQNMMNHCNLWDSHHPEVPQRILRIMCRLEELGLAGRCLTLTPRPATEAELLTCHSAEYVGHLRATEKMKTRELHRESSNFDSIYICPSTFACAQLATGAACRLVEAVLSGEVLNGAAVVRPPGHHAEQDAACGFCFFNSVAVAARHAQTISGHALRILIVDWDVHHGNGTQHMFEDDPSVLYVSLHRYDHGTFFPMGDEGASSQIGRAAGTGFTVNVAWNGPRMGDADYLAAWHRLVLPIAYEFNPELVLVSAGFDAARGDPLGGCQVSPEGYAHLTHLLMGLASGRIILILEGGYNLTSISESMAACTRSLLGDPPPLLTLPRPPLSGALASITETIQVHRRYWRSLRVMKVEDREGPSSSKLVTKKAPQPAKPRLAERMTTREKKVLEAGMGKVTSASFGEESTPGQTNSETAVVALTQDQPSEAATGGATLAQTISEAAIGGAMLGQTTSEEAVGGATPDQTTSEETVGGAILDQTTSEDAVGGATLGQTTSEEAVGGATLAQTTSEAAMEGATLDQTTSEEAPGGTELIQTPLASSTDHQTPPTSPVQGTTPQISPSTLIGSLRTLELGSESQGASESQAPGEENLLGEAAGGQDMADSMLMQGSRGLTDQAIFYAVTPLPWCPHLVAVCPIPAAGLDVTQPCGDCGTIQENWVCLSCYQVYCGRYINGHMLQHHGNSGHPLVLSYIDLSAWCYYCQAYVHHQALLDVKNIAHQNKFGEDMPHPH

Histone deacetylase = experiment: Inhibition of recombinant HDAC in human HeLa nuclear extracts using fluorogenic substrate measured after 60 mins by FRET assay
[4] = Drug distribution in triple negative human MDA-MB-231 cells expressing class 1 HDACs assessed as accumulation in nucleus by measuring colocalization of Cy5.5 signal measured for 60 mins by DAPI staining based confocal microscopic analysis; type: ADME, cell-based; conditions: mda-mb-231, 1 h
[5] = Drug uptake in tumor of athymic nude mouse xenografted with human MDA-MB-231 cells at 3 nmol, iv measured 4 hrs post infection by epifluorescence analysis; type: ADME, organism-based, Neoplasm; conditions: in vivo
[6] = (§1) Drug uptake in tumor of athymic nude mouse xenografted with human MDA-MB-231 cells at 3 nmol, iv pretreated with (12Z,7S,10S)-7- (4-Aminobutyl)-4-ethylidene-10-((E)-4-(heptyldisulfaneyl)but-1-en-1-yl)-9-oxa-3,6,13-triaza-1(4,2)-thiazolacyclotetradecaphane-2,5,8,12-tetraone followed by compound addition and measured up to 48 hrs by epifluorescence analysis; type: ADME, organism-based, Neoplasm; conditions: in vivo
[7] = Drug uptake in tumor of athymic nude mouse xenografted with human MDA-MB-231 cells at 3 nmol, iv pretreated with SAHA for 3 days followed by compound addition and measured up to 48 hrs by epifluorescence analysis; type: ADME, organism-based, Neoplasm; conditions: in vivo
[8] = Drug uptake in triple negative human MDA-MB-231 cells overexpressing class 1 HDACs at 1.5 uM in presence of (12Z,7S,10S)-7- (4-Aminobutyl)-4-ethylidene-10-((E)-4-(heptyldisulfaneyl)but-1-en-1-yl)-9-oxa-3,6,13-triaza-1(4,2)-thiazolacyclotetradecaphane-2,5,8,12-tetraone measured after 60 mins by DAPI staining based confocal microscopic analysis; type: ADME, cell-based; conditions: mda-mb-231, 1 h
Homo sapiens = species on record: Homo sapiens; experiment: Selectivity index, ratio of IC50 for inhibition of recombinant HDAC in human HeLa nuclear extracts to IC50 for inhibition of recombinant human C-terminal FLAG/His-tagged HDAC1 (1 to 482 residues) expressed in Sf9 insect cells
[9] = Biodistribution in tumor of athymic nude mouse xenografted with human MDA-MB-231 cells assessed as fluorescence intensity at 3 nmol, iv measured 48 hrs post infection by epifluorescence analysis; type: ADME, organism-based, Neoplasm; conditions: in vivo
[10] = as §1, with “Biodistribution” for “Drug uptake”, “cells assessed as fluorescence intensity” for “cells”, “after” for “up to”; type: ADME, organism-based, Neoplasm; conditions: in vivo
[11] = Biodistribution in tumor of athymic nude mouse xenografted with human MDA-MB-231 cells assessed as fluorescence intensity at 3 nmol, iv pretreated with SAHA for 3 days followed by compound addition and measured up to 48 hrs by epifluorescence analysis; type: ADME, organism-based, Neoplasm; conditions: in vivo
[12] = Biodistribution in kidney of athymic nude mouse xenografted with human MDA-MB-231 cells assessed as fluorescence intensity at 3 nmol, iv measured 48 hrs post infection by epifluorescence analysis; type: ADME, organism-based; conditions: in vivo
[13] = Drug distribution in NOD-SCID mouse lung xenografted with triple negative MDA-MB-231 cells assessed as accumulation in metastatic lungs by measuring increase in fluorescence intensity at 3 nmol, iv measured 24 hrs post infection by NRI fluorescence imaging analysis (Rvb= 2.2+/- 0.5 10^9/s/cm2); type: ADME, organism-based; conditions: in vivo
[14] = biological target: Histone deacetylase 3/Nuclear receptor corepressor 2 (HDAC3/NCoR2) (Homo sapiens, UniProt O15379); experiment: Inhibition of C-terminal His-tagged recombinant human HDAC3 (1 to 428 residues)/N-terminal GST-tagged recombinant human NCoR2 (395 to 489 residues) co-expressed in baculovirus infected Sf9 cells using fluorometric substrate measured after 60 mins by FRET assay
Histone deacetylase 3/Nuclear receptor corepressor 2 (HDAC3/NCoR2), sequence (O15379 whole entry, the tested form may be a part): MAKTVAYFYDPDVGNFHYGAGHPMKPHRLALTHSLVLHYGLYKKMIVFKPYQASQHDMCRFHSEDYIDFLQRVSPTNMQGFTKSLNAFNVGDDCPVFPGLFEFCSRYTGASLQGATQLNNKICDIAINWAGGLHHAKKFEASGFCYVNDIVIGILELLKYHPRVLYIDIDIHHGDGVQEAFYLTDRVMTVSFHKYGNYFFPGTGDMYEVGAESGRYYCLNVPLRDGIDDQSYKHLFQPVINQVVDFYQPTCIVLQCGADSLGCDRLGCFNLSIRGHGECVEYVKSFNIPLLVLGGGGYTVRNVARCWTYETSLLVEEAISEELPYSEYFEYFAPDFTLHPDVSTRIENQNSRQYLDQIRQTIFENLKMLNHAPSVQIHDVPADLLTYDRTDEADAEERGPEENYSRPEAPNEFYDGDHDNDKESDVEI
Histone deacetylase 3/Nuclear receptor corepressor 2 (HDAC3/NCoR2), sequence (Q9Y618 whole entry, further chain, the tested form may be a part): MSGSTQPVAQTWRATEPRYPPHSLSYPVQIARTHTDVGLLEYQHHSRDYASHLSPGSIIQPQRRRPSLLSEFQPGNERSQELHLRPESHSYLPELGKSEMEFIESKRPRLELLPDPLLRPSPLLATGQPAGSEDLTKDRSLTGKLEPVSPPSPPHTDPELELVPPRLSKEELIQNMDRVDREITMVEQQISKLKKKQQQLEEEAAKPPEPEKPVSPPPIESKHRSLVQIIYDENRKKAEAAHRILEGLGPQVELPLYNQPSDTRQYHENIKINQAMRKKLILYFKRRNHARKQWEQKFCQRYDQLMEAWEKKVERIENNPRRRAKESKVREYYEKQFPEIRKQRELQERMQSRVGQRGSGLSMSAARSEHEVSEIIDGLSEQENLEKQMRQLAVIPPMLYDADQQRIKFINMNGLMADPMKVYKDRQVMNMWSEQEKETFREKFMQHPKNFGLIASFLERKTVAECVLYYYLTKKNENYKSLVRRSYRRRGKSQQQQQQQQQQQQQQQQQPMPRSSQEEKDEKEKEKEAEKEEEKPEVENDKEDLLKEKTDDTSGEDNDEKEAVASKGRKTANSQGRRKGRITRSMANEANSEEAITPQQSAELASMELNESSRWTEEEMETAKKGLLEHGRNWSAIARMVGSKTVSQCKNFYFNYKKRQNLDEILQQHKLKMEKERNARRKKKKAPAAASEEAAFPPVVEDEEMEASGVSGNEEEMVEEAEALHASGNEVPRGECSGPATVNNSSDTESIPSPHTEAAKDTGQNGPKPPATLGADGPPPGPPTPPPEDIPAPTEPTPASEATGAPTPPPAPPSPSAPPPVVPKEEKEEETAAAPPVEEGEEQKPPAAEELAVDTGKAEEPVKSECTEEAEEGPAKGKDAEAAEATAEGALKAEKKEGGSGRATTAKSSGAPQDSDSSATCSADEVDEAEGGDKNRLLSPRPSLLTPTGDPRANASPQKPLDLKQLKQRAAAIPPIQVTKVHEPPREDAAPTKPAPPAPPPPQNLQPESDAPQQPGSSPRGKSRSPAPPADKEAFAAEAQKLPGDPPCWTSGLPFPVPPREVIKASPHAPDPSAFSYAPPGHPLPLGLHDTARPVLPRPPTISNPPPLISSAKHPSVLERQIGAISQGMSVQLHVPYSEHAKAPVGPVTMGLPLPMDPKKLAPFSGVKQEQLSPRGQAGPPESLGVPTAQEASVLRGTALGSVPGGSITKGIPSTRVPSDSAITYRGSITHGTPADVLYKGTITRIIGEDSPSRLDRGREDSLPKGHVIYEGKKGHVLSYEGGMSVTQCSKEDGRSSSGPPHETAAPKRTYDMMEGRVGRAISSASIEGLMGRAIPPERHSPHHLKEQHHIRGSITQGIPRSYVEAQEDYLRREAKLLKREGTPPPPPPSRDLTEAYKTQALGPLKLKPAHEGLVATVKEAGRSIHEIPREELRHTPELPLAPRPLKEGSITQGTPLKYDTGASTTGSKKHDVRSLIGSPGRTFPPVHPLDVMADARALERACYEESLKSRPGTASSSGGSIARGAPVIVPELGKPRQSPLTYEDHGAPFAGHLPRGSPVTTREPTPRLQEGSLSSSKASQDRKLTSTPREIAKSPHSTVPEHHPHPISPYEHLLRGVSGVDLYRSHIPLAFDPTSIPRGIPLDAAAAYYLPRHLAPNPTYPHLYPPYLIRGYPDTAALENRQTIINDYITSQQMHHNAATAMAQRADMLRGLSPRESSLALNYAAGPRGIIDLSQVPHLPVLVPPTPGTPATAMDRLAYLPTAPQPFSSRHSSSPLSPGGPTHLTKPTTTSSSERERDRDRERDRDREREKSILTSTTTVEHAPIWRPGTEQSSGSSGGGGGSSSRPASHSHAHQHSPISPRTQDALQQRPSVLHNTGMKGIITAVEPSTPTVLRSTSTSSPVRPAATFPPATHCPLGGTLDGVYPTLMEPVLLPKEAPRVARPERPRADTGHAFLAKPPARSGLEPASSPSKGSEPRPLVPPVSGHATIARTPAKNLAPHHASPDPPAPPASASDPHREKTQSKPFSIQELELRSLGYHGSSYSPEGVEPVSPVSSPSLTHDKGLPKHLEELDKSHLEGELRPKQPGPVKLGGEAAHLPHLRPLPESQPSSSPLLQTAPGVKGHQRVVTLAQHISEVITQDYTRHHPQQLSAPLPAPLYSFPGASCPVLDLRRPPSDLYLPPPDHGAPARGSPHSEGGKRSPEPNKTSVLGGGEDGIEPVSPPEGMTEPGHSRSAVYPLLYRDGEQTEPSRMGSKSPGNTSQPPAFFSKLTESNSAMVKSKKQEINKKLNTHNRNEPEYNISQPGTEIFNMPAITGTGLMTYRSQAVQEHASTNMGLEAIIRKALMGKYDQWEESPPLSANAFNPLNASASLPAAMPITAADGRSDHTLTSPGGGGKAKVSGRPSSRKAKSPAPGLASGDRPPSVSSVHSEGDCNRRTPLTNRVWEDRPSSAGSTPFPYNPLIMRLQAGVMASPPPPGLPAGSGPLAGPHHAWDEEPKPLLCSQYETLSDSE

Histone deacetylase 2 = Histone deacetylase 2 (Homo sapiens, UniProt Q92769); experiment: biochemical; type: cell-based, Sf9
Histone deacetylase 2, sequence (Q92769 whole entry): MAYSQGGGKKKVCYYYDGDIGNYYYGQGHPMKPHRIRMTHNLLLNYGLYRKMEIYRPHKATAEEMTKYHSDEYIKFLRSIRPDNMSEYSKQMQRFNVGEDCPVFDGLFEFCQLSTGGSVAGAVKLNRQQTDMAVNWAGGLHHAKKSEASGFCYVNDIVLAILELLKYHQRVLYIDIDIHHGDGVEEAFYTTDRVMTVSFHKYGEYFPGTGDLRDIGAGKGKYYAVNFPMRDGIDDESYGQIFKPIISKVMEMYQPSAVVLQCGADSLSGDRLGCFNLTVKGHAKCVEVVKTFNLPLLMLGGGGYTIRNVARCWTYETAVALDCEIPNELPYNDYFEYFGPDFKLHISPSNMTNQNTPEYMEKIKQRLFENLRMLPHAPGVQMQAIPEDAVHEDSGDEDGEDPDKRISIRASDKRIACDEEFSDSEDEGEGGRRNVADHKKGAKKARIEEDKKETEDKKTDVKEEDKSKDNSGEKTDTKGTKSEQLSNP
Description: Inhibition of recombinant human full length C-terminal His- tagged HDAC2 (1 to 488 residues) expressed in Sf9 insect cells using fluorometric substrate measured after 60 mins by FRET assay

Histone deacetylase 8 = biological target: T2, Histone deacetylase 8 (Homo sapiens, UniProt Q9BY41); experiment: Inhibition of recombinant human full length C-terminal His-tagged HDAC8 expressed in baculovirus infected Sf9 insect cells using fluorometric substrate measured after 60 mins by FRET assay
T2 sequence (Q9BY41 whole entry): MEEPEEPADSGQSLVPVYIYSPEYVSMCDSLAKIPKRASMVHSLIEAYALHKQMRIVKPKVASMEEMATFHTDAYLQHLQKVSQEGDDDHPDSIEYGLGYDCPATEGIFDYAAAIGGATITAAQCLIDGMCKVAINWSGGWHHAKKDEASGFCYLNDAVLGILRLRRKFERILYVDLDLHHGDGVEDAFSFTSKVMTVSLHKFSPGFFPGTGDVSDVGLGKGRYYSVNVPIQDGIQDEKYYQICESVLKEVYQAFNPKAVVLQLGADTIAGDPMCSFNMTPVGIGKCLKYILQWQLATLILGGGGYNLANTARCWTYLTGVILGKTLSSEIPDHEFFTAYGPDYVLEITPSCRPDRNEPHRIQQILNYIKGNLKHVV

[15] = biological target: T3, Polyamine deacetylase HDAC10 (Homo sapiens, UniProt Q969S8); experiment: Inhibition of recombinant human N-terminal FLAG tagged HDAC10 (2 to 631 residues) expressed in baculovirus infected Sf9 insect cells using fluorogenic substrate measured after 60 mins by FRET assay
T3 sequence (Q969S8 whole entry): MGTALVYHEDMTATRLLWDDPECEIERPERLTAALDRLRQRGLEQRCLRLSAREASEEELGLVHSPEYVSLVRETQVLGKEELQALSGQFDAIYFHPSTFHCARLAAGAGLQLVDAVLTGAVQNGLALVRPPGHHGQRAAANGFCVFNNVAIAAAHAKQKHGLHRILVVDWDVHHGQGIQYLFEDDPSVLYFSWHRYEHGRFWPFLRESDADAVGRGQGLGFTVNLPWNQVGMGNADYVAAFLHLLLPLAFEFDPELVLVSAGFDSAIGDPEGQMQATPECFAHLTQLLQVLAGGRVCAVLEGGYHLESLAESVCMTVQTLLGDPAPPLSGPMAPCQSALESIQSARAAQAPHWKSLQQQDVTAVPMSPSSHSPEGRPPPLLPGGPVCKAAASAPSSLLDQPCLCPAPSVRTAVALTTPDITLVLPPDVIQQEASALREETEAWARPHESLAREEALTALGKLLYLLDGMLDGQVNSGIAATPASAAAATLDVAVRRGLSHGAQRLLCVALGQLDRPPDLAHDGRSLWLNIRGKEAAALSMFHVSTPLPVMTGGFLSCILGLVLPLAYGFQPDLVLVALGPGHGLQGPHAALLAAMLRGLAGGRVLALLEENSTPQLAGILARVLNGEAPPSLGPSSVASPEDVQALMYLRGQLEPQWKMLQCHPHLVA

MDA-MB-231 = experiment: Antiproliferative activity against triple-negative human MDA-MB-231 cells assessed as cell growth inhibition incubated for 72 hrs by CCK8 assay; type: functional
[16] = Cytotoxicity against human WI-38 cells assessed as cell growth inhibition incubated for 72 hrs by CCK8 assay; type: cell-based
[17] = Selectivity index, ratio of GI50 for cytotoxicity against human WI-38 cells to GI50 for antiproliferative activity against triple-negative human MDA-MB-231 cells; type: toxicity, cell-based; conditions: WI-38 cells versus MDA-MB-231 cells, read-out: RatioGI50

## C/C=C1\NC(=O)c2csc(n2)CNC(=O)C[C@@H](/C=C/CCSSCCCCCCC)OC(=O)[C@H](CCCCNC(=O)CCCCC[N+]2=C(/C=C/C=C/C=C3/N(CC)c4ccc5c(S(=O)(=O)O)cc(S(=O)(=O)O)cc5c4C3(C)C)C(C)(C)c3c2ccc2c(S(=O)(=O)[O-])cc(S(=O)(=O)O)cc32)NC1=O
[1]
  Drug uptake: Active
[2]
  Drug uptake: 70%
Histone deacetylase 1
  IC50: 8 nM
[3]
  IC50: 70 nM
Histone deacetylase
  IC50: 824 nM
[4]
  Drug uptake: Active
[5]
  Drug uptake: Active
[6]
  Drug uptake: Not Active
[7]
  Drug uptake: Not Active
[8]
  Drug uptake: Not Active
Homo sapiens
  Ratio IC50: 100
[9]
  Flu intensity: 3.13 10^9/s/cm2
[10]
  Flu intensity: 1.95 10^9/s/cm2
[11]
  Flu intensity: 1.33 10^9/s/cm2
[12]
  Flu intensity: 3.06 10^9/s/cm2
[13]
  Flu intensity: 8 10^9/s/cm2

## C/C=C1\NC(=O)c2csc(n2)CNC(=O)C[C@@H](/C=C/CCSC(=O)CCCCCCC)OC(=O)[C@H](C(C)C)NC1=O
Histone deacetylase 1
  IC50: 3.1 nM
[14]
  IC50: 8.9 nM
Histone deacetylase 2
  IC50: 5.3 nM
Histone deacetylase 8
  IC50: 3960 nM
[3]
  IC50: 1810 nM
[15]
  IC50: 37 nM
MDA-MB-231
  GI50: 11.3 nM
[16]
  GI50 at 72 h: 363 nM
[17]
  selectivity ratio: 32

## C/C=C1\NC(=O)[C@H]2CSSCC/C=C/[C@H](CC(=O)N[C@H](C(C)C)C(=O)N2)OC(=O)[C@H](C(C)C)NC1=O [ROMIDEPSIN]
[16]
  GI50 at 72 h: 30.1 nM
[17]
  selectivity ratio: 3.1
